# From patent US10052322B2 (SIGNAL PHARMACEUTICALS, LLC, priority 2013, dated 2018)
# Entries after “also recorded” stand apart in the source; their conditions may differ. Read-outs that look alike come from different tables or passages of the source.
# How the values were obtained:
# Assay type in all cases: physicochemical
# [1] = Hygroscopicity by dynamic vapor sorption (DVS)
# Protocol: Hygroscopicity was determined on a Surface Measurement Systems DVS. Typically a sample size of 2-10 mg was loaded into the DVS instrument sample pan and the sample was analyzed on a DVS automated sorption analyzer at room temperature. […] The relative humidity was then decreased in a similar manner to accomplish a full adsorption/desorption cycle. For selected hydrated forms, the analysis started at 50% RH and increased to 90% RH at 10% RH step. The relative humidity was then decreased in a similar manner to 0% RH followed by increasing to 50% RH.
# [2] = Form transfer / competitive slurry experiments
# Protocol: The resulting mixture was agitated for at least 24 hours at room temperature and 50° C. separately. Upon reaching equilibrium, the saturated supernatant solution was removed and allowed to evaporate slowly in an open vial under nitrogen at room temperature and 50° C., respectively. The solid resulting from the equilibration was filtered and air-dried before analysis.
# [3] = Solubility of Form A in selected aqueous and organic solvents (HPLC); conditions: thermodynamic from solid, read-out: Solubility (mg/mL) (room temperature)
# Protocol: Solubility of Form A in selected aqueous and organic solvents was determined by mixing solid with solvents at room temperature. […] Solubility of Form B and Form C in water was also determined by the same HPLC method.
# [4] = Equilibration / slurry experiments of Form A (XRPD)
# Protocol: (§1) All of the solid samples generated in the polymorph screen were analyzed by XRPD. XRPD analysis was conducted on a Thermo ARL X'TRA X-ray powder diffractometer using Cu Kα radiation at 1.54 Å. The instrument was equipped with a fine focus X-ray tube. The voltage and amperage of the X-ray generator were set at 45 kV and 40 mA, respectively. The divergence slits were set at 4 mm and 2 mm and the measuring slits were set at 0.5 mm and 0.2 mm. Diffracted radiation was measured using a Peltier-cooled Si (Li) solid-state detector. A theta-two theta continuous scan at 2.40/min (0.5 sec/0.02° step) from 1.5° to 40° 2θ was used. A sintered alumina standard was used to check the peak positions. […] The resulting mixture was agitated for at least 24 hours at room temperature and 50° C. separately. Upon reaching equilibrium, the saturated supernatant solution was removed and allowed to evaporate slowly in an open vial under nitrogen at room temperature and 50° C., respectively. The solid resulting from the equilibration was filtered and air-dried before analysis.
# [5] = Evaporation experiments (XRPD); conditions: evaporation at 50° C.
# Protocol: as §1
# [6] = humidity from about 0% to about 50% RH at about 25° C.
# [7] = humidity from about 0% to about 95% RH at about 25° C.
# [8] = humidity increased from about 0% to about 80% RH
# [9] = humidity increased from about 80% to about 90% RH
# [10] = slurry in MeOH/water (1:1), seed None, 1 week
compound,measurement,setting,value
"CCN1C(=O)CNc2ncc(-c3ccc(-c4nnc[nH]4)nc3C)nc21 [Form E, 1-ethyl-7-(2-methyl-6-(1H-1,2,4-triazol-3-yl)pyridin-3-yl)-3,4-dihydropyrazino[2,3-b]pyrazin-2(1H)-one]",Moisture sorption (wt % at 90% RH),[1],5.9 wt %
same,weight gain,[1]; [6],about 2.3 % w/w
same,weight gain,[1]; [7],about 5.8 % w/w
same,mass gain,[1]; [8],less than 4 % w/w
same,mass gain,[1]; [9],about 1.1 % w/w
same,XRPD Result,"[2]; slurry in Acetonitrile, seed None, 1 week",Form A
same,XRPD Result,[2]; [10],Form C
"CCN1C(=O)CNc2ncc(-c3ccc(-c4nnc[nH]4)nc3C)nc21 [Form B, 1-ethyl-7-(2-methyl-6-(1H-1,2,4-triazol-3-yl)pyridin-3-yl)-3,4-dihydropyrazino[2,3-b]pyrazin-2(1H)-one]",Moisture sorption (wt % at 90% RH),[1]; listed as B,20.7 wt %
same,XRPD Result,"[2]; slurry in Acetonitrile, seed None, 3 days",Form A
"CCN1C(=O)CNc2ncc(-c3ccc(-c4nnc[nH]4)nc3C)nc21 [Form C, 1-ethyl-7-(2-methyl-6-(1H-1,2,4-triazol-3-yl)pyridin-3-yl)-3,4-dihydropyrazino[2,3-b]pyrazin-2(1H)-one]",Moisture sorption (wt % at 90% RH),[1]; listed as C,12.2 wt %
same,XRPD Result,"[2]; slurry in H2O, seed None, 1 week",Form C
same,XRPD Result,[2]; [10],Form C
"CCN1C(=O)CNc2ncc(-c3ccc(-c4nnc[nH]4)nc3C)nc21 [Form A, 1-ethyl-7-(2-methyl-6-(1H-1,2,4-triazol-3-yl)pyridin-3-yl)-3,4-dihydropyrazino[2,3-b]pyrazin-2(1H)-one]",solubility at 24 h,"[3]; 0.1N HCl, simulated gastric fluid",7.1 mg/mL
same,solubility at 24 h,"[3]; 0.9% NaCl, saline or isotonic",0.03 mg/mL
same,solubility at 24 h,"[3]; acetone, organic solvent or mixture",0.46 mg/mL
same,solubility at 24 h,"[3]; acetonitrile, organic solvent or mixture",0.14 mg/mL
same,solubility at 24 h,"[3]; aqueous buffer, Acetate buffer pH 4.0",0.06 mg/mL
same,solubility at 24 h,"[3]; aqueous buffer, Phosphate buffer pH 6.8",0.05 mg/mL
same,solubility at 24 h,"[3]; ethanol, organic solvent or mixture",0.5 mg/mL
same,solubility at 24 h,"[3]; ethyl acetate, organic solvent or mixture",0.32 mg/mL
same,solubility at 24 h,"[3]; heptane, organic solvent or mixture",< 0.005 mg/mL
same,solubility at 24 h,"[3]; isopropanol, organic solvent or mixture",0.28 mg/mL
same,solubility at 24 h,"[3]; methanol, organic solvent or mixture",1.13 mg/mL
same,solubility,"[3]; organic solvent or mixture, Dimethyl Sulfoxide, estimated from visual observation of complete dissolution",> 50 mg/mL
same,solubility at 24 h,"[3]; tetrahydrofuran, organic solvent or mixture",5.5 mg/mL
same,solubility at 24 h,"[3]; Water, room temperature, 24 hours",0.08 mg/mL
same,hygroscopicity,"[1]; DVS, in words",non-hygroscopic; also recorded: not hygroscopic
same,Moisture sorption (wt % at 90% RH),[1],0.4 wt %
same,weight gain,[1]; [6],about 0.2 % w/w
same,weight gain,[1]; [7],about 0.5 % w/w
same,mass gain,[1]; [8],less than 0.35 % w/w
same,mass gain,[1]; [9],about 0.08 % w/w
same,XRPD Result 24 hours,"[4]; equilibration at room temperature, 2-Propanol",Form A
same,XRPD Result 24 hours,"[4]; equilibration at room temperature, Acetone",Form A
same,XRPD Result 24 hours,"[4]; equilibration at room temperature, Acetonitrile",Form A
same,XRPD Result 24 hours,"[4]; equilibration at room temperature, Ethanol",Form A
same,XRPD Result 24 hours,"[4]; equilibration at room temperature, Ethanol/Water (1:1)",Form A
same,XRPD Result 24 hours,"[4]; equilibration at room temperature, Ethyl acetate",Form A
same,XRPD Result 24 hours,"[4]; equilibration at room temperature, Heptane",Form A
same,XRPD Result 24 hours,"[4]; equilibration at room temperature, Methanol",Form A
same,XRPD Result 24 hours,"[4]; equilibration at room temperature, Methyl ethyl ketone",Form A
same,XRPD Result 24 hours,"[4]; equilibration at room temperature, Methyl t-butyl ether",Form A
same,XRPD Result 24 hours,"[4]; equilibration at room temperature, Methylene chloride",Form A
same,XRPD Result 24 hours,"[4]; equilibration at room temperature, Tetrahydrofuran",Form A
same,XRPD Result 24 hours,"[4]; equilibration at room temperature, Toluene",Form A
same,XRPD Result 24 hours,"[4]; equilibration at room temperature, Water",Form A
same,XRPD Result 24 hours,"[4]; equilibration at room temperature, n-Butanol",Form A
same,XRPD Result 24 hours,"[4]; slurry at 50° C., 2-Propanol",Form A
same,XRPD Result 24 hours,"[4]; slurry at 50° C., Acetone",Form A
same,XRPD Result 24 hours,"[4]; slurry at 50° C., Acetonitrile",Form A
same,XRPD Result 24 hours,"[4]; slurry at 50° C., Ethanol",Form A
same,XRPD Result 24 hours,"[4]; slurry at 50° C., Ethanol/Water (1:1)",Form A
same,XRPD Result 24 hours,"[4]; slurry at 50° C., Ethyl acetate",Form A
same,XRPD Result 24 hours,"[4]; slurry at 50° C., Heptane",Form A
same,XRPD Result 24 hours,"[4]; slurry at 50° C., Methanol",Form A
same,XRPD Result 24 hours,"[4]; slurry at 50° C., Methyl ethyl ketone",Form A
same,XRPD Result 24 hours,"[4]; slurry at 50° C., Tetrahydrofuran",Form A
same,XRPD Result 24 hours,"[4]; slurry at 50° C., Toluene",Form A
same,XRPD Result 24 hours,"[4]; slurry at 50° C., Water",Form A
same,XRPD Result 24 hours,"[4]; slurry at 50° C., n-Butanol",Form A
same,XRPD Result,[5]; Methanol,Form A + B
same,XRPD Result,[5]; Tetrahydrofuran,"Amorphous, degraded"
same,XRPD Result,"[2]; slurry in Acetonitrile, seed None, 2 weeks",Form A
same,XRPD Result,"[2]; slurry in EtOH/H2O (1:1), seed Form B, 1 week",Form A
same,XRPD Result,"[2]; slurry in EtOH/H2O (1:1), seed Form C, 1 week",Form A
same,XRPD Result,"[2]; slurry in Ethanol/Water (1:1), seed None, 2 weeks",Form A
same,XRPD Result,"[2]; slurry in H2O, seed Form B, 1 week",Form A
same,XRPD Result,"[2]; slurry in H2O, seed Form C, 7 weeks",Form A + C
same,XRPD Result,"[2]; slurry in H2O, seed None, 2 weeks",Form A
same,XRPD Result,"[2]; slurry in MTBE, seed None, 2 weeks",Form A
same,XRPD Result,"[2]; slurry in MeOH, seed Form B, 1 week",Form A
same,XRPD Result,"[2]; slurry in MeOH, seed Form C, 1 week",Form A
same,XRPD Result,"[2]; slurry in MeOH, seed None, 2 weeks",Form A
